# According to ChEMBL document CHEMBL1909046, “DrugMatrix in vitro pharmacology data”:
# Columns and labels:
# Glucocorticoid receptor = biological target: T1, Glucocorticoid receptor (Homo sapiens, UniProt P04150); experiment: biochemical
# T1 sequence (P04150 whole entry): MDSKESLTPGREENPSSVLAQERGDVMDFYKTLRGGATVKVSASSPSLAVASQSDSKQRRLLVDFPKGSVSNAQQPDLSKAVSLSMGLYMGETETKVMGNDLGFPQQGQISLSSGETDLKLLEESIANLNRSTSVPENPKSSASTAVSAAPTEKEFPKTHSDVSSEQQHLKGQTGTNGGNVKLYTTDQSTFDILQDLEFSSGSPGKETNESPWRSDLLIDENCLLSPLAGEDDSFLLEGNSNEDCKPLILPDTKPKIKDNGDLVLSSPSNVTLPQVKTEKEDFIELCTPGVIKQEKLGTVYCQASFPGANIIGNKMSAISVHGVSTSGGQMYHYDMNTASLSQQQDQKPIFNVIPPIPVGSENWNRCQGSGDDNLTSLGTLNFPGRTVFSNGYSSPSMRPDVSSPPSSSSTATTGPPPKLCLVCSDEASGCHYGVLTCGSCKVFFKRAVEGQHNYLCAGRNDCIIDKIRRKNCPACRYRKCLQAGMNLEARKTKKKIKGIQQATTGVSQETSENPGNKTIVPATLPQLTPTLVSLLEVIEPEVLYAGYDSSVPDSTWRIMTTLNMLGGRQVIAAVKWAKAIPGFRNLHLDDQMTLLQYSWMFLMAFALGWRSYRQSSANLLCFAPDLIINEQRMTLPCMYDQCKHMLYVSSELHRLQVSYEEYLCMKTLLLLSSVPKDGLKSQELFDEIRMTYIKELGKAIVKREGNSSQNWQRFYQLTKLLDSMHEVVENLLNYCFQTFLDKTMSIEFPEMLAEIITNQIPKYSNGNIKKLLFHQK
# Cytochrome P450 2C9 = Cytochrome P450 2C9 (Homo sapiens, UniProt P11712)
# Sequence of Cytochrome P450 2C9 (P11712 whole entry): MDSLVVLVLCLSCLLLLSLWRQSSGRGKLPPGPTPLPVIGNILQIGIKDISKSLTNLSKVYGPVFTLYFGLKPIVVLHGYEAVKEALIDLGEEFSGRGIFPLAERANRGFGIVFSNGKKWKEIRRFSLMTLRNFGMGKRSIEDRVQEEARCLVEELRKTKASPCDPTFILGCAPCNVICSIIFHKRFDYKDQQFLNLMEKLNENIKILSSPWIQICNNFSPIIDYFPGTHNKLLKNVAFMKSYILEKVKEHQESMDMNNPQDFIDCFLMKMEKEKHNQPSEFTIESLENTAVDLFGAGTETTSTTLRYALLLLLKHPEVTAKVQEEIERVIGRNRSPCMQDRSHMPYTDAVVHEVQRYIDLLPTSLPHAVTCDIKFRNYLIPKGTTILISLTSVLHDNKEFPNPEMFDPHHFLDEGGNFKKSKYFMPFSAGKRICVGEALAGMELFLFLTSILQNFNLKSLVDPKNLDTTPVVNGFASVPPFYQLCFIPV
# Cytochrome P450 2C19 [1] = biological target: T2, Cytochrome P450 2C19 (Homo sapiens, UniProt P33261)
# T2 sequence (P33261 whole entry): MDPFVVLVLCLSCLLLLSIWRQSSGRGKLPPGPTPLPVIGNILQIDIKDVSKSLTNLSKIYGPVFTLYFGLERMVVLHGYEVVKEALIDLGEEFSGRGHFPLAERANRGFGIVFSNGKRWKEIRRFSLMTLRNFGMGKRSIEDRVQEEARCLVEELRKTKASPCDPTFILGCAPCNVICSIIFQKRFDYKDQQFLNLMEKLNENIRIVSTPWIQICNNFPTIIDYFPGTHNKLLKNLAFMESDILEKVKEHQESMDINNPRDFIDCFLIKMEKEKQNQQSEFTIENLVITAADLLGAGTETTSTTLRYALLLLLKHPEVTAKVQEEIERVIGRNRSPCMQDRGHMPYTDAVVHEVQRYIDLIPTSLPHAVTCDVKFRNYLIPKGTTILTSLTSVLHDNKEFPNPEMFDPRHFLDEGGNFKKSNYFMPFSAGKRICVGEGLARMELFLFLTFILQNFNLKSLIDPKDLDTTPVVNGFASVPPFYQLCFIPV
# Cytochrome P450 2D6 = Cytochrome P450 2D6 (Homo sapiens, UniProt P10635)
# Sequence of Cytochrome P450 2D6 (P10635 whole entry): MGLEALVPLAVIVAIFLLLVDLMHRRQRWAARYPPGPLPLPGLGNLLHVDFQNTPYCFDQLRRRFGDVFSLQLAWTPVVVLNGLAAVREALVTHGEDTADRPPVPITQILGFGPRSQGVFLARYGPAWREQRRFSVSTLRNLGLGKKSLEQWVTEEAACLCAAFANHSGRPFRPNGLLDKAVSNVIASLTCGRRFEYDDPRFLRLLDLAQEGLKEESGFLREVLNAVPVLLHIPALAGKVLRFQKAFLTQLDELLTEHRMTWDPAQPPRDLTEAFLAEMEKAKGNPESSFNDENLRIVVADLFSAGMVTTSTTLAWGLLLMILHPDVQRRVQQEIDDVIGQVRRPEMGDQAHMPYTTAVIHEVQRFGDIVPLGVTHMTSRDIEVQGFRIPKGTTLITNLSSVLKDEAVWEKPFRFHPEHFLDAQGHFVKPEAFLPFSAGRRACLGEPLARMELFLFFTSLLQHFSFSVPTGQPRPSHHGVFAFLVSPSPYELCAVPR
# Cytochrome P450 1A2 = biological target: T3, Cytochrome P450 1A2 (Homo sapiens, UniProt P05177)
# T3 sequence (P05177 whole entry): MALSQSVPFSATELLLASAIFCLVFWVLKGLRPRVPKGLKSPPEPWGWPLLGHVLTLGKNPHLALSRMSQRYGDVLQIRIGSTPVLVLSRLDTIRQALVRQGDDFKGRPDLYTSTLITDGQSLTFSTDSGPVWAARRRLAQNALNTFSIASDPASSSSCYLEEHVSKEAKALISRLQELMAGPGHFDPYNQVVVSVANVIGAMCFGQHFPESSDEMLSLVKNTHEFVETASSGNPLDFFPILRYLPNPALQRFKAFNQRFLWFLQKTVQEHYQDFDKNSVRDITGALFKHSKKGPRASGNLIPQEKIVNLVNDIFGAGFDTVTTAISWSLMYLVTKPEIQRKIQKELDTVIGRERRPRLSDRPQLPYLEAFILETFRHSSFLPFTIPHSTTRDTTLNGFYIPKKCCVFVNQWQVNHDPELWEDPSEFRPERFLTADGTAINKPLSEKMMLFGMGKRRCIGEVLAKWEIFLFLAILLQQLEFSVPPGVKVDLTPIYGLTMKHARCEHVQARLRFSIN
# Cytochrome P450 3A4 = Cytochrome P450 3A4 (Homo sapiens, UniProt P08684)
# Sequence of Cytochrome P450 3A4 (P08684 whole entry): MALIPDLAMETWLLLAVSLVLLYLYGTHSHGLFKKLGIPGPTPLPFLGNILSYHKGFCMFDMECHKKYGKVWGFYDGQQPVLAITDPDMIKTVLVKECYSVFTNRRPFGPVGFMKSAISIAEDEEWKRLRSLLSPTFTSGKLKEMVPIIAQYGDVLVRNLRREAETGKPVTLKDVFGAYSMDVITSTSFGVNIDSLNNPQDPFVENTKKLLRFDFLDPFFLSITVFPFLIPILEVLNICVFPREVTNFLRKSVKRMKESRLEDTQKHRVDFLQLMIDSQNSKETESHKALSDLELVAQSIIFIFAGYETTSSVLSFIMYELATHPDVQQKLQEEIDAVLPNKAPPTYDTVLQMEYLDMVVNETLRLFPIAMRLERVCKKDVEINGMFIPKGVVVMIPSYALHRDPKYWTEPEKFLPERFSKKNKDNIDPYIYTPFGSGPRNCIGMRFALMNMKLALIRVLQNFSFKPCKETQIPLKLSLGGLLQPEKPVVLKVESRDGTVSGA
# Cytochrome P450 2C19 [2] = biological target: T2, Cytochrome P450 2C19; conditions: bti-tn-5b1-4
# Androgen receptor = biological target: T4, Androgen receptor (Rattus norvegicus, UniProt P15207)
# T4 sequence (P15207 whole entry): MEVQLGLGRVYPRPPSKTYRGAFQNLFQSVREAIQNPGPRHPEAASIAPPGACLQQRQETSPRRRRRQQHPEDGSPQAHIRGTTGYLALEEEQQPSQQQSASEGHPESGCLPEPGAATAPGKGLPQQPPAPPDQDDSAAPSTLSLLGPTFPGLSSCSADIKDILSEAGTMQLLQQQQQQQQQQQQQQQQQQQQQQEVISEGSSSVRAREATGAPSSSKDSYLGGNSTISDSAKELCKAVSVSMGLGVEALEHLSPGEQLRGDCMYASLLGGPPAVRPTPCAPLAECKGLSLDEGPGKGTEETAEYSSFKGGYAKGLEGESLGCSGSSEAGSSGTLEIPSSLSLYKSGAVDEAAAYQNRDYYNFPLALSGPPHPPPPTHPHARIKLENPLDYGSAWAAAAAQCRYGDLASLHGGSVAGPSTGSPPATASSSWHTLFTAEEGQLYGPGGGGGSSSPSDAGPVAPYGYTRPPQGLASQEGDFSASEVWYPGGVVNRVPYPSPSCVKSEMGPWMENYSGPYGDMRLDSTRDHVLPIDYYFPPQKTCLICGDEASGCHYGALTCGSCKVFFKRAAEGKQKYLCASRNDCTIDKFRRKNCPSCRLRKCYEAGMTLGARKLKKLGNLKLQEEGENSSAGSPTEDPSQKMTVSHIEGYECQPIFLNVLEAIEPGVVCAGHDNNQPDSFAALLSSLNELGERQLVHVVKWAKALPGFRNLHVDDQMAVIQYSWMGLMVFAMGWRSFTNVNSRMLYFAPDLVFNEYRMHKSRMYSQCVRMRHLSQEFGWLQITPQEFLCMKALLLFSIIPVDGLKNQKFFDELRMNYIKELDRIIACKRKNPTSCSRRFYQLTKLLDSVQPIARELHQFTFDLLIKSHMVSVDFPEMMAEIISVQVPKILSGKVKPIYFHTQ
# Also: in other assays of this panel Not Active means under 50% inhibition at 10 µM.
SMILES,IC50 (Cytochrome P450 2C9) [nM],IC50 (Cytochrome P450 2C19 [1]) [nM],IC50 (Cytochrome P450 2D6) [µM],IC50 (Cytochrome P450 1A2) [µM],also measured
Clc1ccccc1C(c1ccccc1)(c1ccccc1)n1ccnc1 [CLOTRIMAZOLE],16,16,,,IC50 (Glucocorticoid receptor): 3.26 µM; Ki (Glucocorticoid receptor): 1480 nM
CC(CCc1ccccc1)NCC(O)c1ccc(O)c(C(N)=O)c1 (configuration not stated) [LABETALOL],,,0.8,,
NNc1ccccc1 [PHENYLHYDRAZINE],6000,5000,3,8,
C[C@]12Cc3c[nH]nc3C[C@@H]1CC[C@@H]1[C@@H]2CC[C@@]2(C)[C@H]1CC[C@]2(C)O [STANOZOLOL],1130,48,9.27,,
C=CC[C@@H]1/C=C(\C)C[C@H](C)C[C@H](OC)[C@H]2O[C@@](O)(C(=O)C(=O)N3CCCC[C@H]3C(=O)O[C@H](/C(C)=C/[C@@H]3CC[C@@H](O)[C@H](OC)C3)[C@H](C)[C@@H](O)CC1=O)[C@H](C)C[C@@H]2OC [TACROLIMUS ANHYDROUS],,,,,IC50 (Cytochrome P450 3A4): 1000 nM; IC50 (Cytochrome P450 2C19 [2]): Not Active; Ki (Cytochrome P450 2C19 [2]): Not Active; IC50 (Androgen receptor): Not Active
c1ccc2[nH]c(-c3cscn3)nc2c1 [THIABENDAZOLE],,,,0.8,IC50 (Cytochrome P450 2C19 [2]): Not Active; Ki (Cytochrome P450 2C19 [2]): Not Active; IC50 (Androgen receptor): Not Active
CSc1ccc2c(c1)N(CCC1CCCCN1C)c1ccccc1S2 (configuration not stated) [THIORIDAZINE],,6380,,9.33,
